Square brackets hold non-standard residues; d marks the D form. Ends that are not written are not given here. pGlu = O=C1CC[C@@H](C(=O)O)N1

The subject of this assay is mouse ADAMTS7. Kind of assay: TMT10 TAILS N-terminomics, SMC1 experiment (Ad-mADAMTS7 WT vs EQ vs Luc, technical replicates, trypsin digest). Format: cell-based. Conditions: TAILS neo-N-terminal peptide abundance; log fold change, Ad-mADAMTS7 WT over EQ. The text has this:
ADAMTS7 Expression, Cell Culture and Preparation of the Secreted Proteins—Full-length mouse Adamts7 1-1857 (Uniprot Q68SA9, WT or E373Q catalytic mutant) with a carboxyl terminal 3xFLAG tag was used to generate custom adenoviruses as previously described. Adeno-CMV-Luciferase (Ad-Luc) from Vector Biolabs was used as a negative control. Human Coronary Artery Smooth Muscle Cells (HCA-SMC) were obtained from Lonza and expanded in Lonza SmGM-2 media in 15 cm tissue culture plates. Twenty-four hours before media collection, near confluent plates were transduced with 50 MOI adenovirus and switched to Lonza Basal SM media with volumes of 20 ml per 15 cm plate. Expression of the Flag tagged ADAMTS7 was confirmed from the media using western blot and detected using the anti-Flag M2-HRP antibody (Sigma, A8592). Collected media was processed by adding protease inhibitors (1 mM EDTA and 1 mM PMSF) and clarified by 500 g×5 min spin at 4 C to pellet cell debris. Cell media supernatants were then passed through a 0.22 um filter and kept chilled. Processed media was then concentrated 50-100× using 3 kDa Centricon Plus-70 filter unit, spun at 3,500 g×60 min at 4 C. Approximately 10% of the processed, concentrated media was set aside for total secretome proteolytic analysis. The remaining 90% of the processed, concentrated media was buffer exchanged into 50 mM HEPES pH 8.0, 150 mM NaCl (2×50 ml) using the 3 kDa Centricon Plus-70 filter unit and concentrated to >2 mg/ml to serve as input for the TAILS experiment. Secretome and TAILS input samples were stored at −80° C.
For the first experiment, referred to as SMC1, 120 ml of media from 6×15 cm dishes was pooled from each condition (Luc, WT, EQ) and processed to produce three separate inputs for the TAILS experiment. Luc, WT and EQ inputs from the SMC1 experiment were each divided into triplicate 400 ug samples to generate technical replicate TAILS data. For the second experiment, referred to as SMC2, media was processed separately in triplicate for each condition (Luc1, Luc2, Luc3, WT1, WT2, WT3, EQ1, EQ2, EQ3) using 60 ml of media from 3×15 cm dishes for each process replicate. Inputs from the SMC2 experiment used process replicates of 300 ug each to generate TAILS data. The third experiment used input from cultured Human umbilical vein endothelial cells (HUVEC) from Lifeline Cell Technology grown in VascuLife Media and transduced in Lifeline Basal EC (+bFGF2 10 ng/ml). The HUVEC experiment used the same strategy as the SMC2 experiment, with 40 ml of media from 2×15 cm dishes for each process replicate and used 200 ug each to generate TAILS data. Inputs for process replicate experiments were restricted to the lowest concentration from the 9 parallel samples for SMC2 or HUVEC.
TMT10 isotopic labeling and negative selection of non-labeled peptides-Sample preparation was performed based on the TAILS protocol from the Overall lab with some modifications. From a single experiment, nine parallel protein samples in 50 mM HEPES pH 8.0, 150 mM NaCl were separately denatured with guanidinium chloride (Sigma, G4505) to reach a final concentration of 2.5M guanidinium chloride and 250 mM HEPES and incubated at 65° C. for 15 min. Reduction was achieved through addition of tris(2-carboxylethyl) phosphine (TCEP) at a final concentration of […] and incubated at 65° C. for 45 min. Alkylation reaction was performed with addition of iodoacetamide (IAA, Sigma, A3221) to a final concentration of 10 mM IAA for 15 min at room temperature in the dark. Following denaturation, reduction and alkylation steps, ten percent of each of the nine parallel protein samples was removed and combined to serve as a pooled reference. Isobaric tags were added to free amine groups using the TMT10plex Isobaric Mass Tagging Kit (ThermoFisher, 90113) with TMT channels randomly assigned to the nine samples and TMT 131 assigned to the pooled reference. […]
“ACTB_21 (FAGDDAPR; listed as Homo sapiens)” registered a logFC.mWT.over.mEQ of 1.17. The same measure for “ACTB_105 (LTEAPLNPKANR; listed as Homo sapiens)”: 2.00. In the case of “ADAM9_69 (VIQAEGKEHIIHLER; listed as Homo sapiens)”, the logFC.mWT.over.mEQ amounted to 1.55. On to “AEBP1_37 (FLEGFLSELEPEPR; listed as Homo sapiens)”, for which the logFC.mWT.over.mEQ is listed as 3.41. The same measure for “APLP2_579 (ISETPVDVR; listed as Homo sapiens)”: 2.00; for “CCDC80_66 (LEEPNLQPLQR; listed as Homo sapiens)”: 3.70; for “ECM1_134 (FGDQSHPEPESWNAAQHCQQDR; listed as Homo sapiens)”: 2.74. The substance “EFEMP1_124 (AVAGPEMQTGR; listed as Homo sapiens)” returned a logFC.mWT.over.mEQ of 4.43. In turn, “EFEMP1_125 (VAGPEMQTGR; listed as Homo sapiens)” yielded a logFC.mWT.over.mEQ of 2.25. Take “EFHD2_67 (QGIGEPQSPSR; listed as Homo sapiens)”: the logFC.mWT.over.mEQ amounted to 0.90. The same measure for “EHBP1L1_298 (TAPTPAPR; listed as Homo sapiens)”: 1.23. As for “FBLN2_259 (ALGPPAPVQAKAR; listed as Homo sapiens)”, the figure is 1.29; as for “FBLN2_260 (LGPPAPVQAKAR; listed as Homo sapiens)”, 4.21. As for “FBN1_29 (LEAGNVKETR; listed as Homo sapiens)”, the logFC.mWT.over.mEQ turned out to be 4.49. “FBN1_53 (LKGPNVCGSR; listed as Homo sapiens)” gave a logFC.mWT.over.mEQ of 4.93. Regarding “FLNA_612 (SVEGPSQAKIECDDKGDGSCDVR; listed as Homo sapiens)”, the logFC.mWT.over.mEQ is reported as 1.69. The substance “FLNA_695 (FTVDAKHGGKAPLR; listed as Homo sapiens)” had a logFC.mWT.over.mEQ of 5.04. For the substance “FLNA_1285 (LTQTGGPHVKAR; listed as Homo sapiens)”, the logFC.mWT.over.mEQ is on record as 5.06. Regarding “FN1_36 (MVQPQSPVAVSQSKPGCYDNGKHYQINQQWER; listed as Homo sapiens)”, the logFC.mWT.over.mEQ is on record as 3.34. “FN1_40 (QSPVAVSQSKPGCYDNGKHYQINQQWER; listed as Homo sapiens)”: the logFC.mWT.over.mEQ is recorded as 4.27. The same measure for “FN1_45 (VSQSKPGCYDNGKHYQINQQWER; listed as Homo sapiens)”: 3.20; for “FN1_47 ([code q]SKPGCYD[code n]GKHYQINQQWER; not fully specified; listed as Homo sapiens)”: 2.89. As for “FN1_281 (SGSGPFTDVR; listed as Homo sapiens)”, the figure is 1.88. “FN1_282 (GSGPFTDVR; listed as Homo sapiens)” showed a logFC.mWT.over.mEQ of 3.89.

With “FN1_886 (NQESTPVVIQQETTGTPR; listed as Homo sapiens)”, the logFC.mWT.over.mEQ was 1.21. In the case of “FN1_1143 (LTPGVEYVYTIQVLR; listed as Homo sapiens)”, the logFC.mWT.over.mEQ is 0.86. On to “FN1_1656 (SSSPVTGYR; listed as Homo sapiens)”, for which the logFC.mWT.over.mEQ is 1.52. As for “FN1_1731 (FTDVDVDSIKIAWESPQGQVSR; listed as Homo sapiens)”, the figure is 2.70; as for “FN1_2143 (FEEHGFR; listed as Homo sapiens)”, 1.24. The same measure for “FN1_2217 (FQDTSEYIISCHPVGTDEEPLQFR; listed as Homo sapiens)”: 2.27. Consider “GALNT2_31 (LAGGAGGGAGR; listed as Homo sapiens)”, for which the logFC.mWT.over.mEQ is recorded as 1.19. The same measure for “GSN_35 (SQAGAPQGR; listed as Homo sapiens)”: 4.37. The same measure for “GSN_413 (HIANVER; listed as Homo sapiens)”: 2.19; for “HEG1_49 (GAGLELQLER; listed as Homo sapiens)”: 1.20; for “HLA−C_52 (VDDTQFVR; listed as Homo sapiens)”: 0.78. Regarding “HSPG2_275 (LLPGSVR; listed as Homo sapiens)”, the logFC.mWT.over.mEQ is on record as 2.49. Consider “HSPG2_1937 (SSAGQQVAR; listed as Homo sapiens)”, for which the logFC.mWT.over.mEQ came out at 0.94. As to “HSPG2_2331 (ANLAYPAGSTQPIR; listed as Homo sapiens)”, the logFC.mWT.over.mEQ was 2.04. Regarding “HSPG2_2333 (LAYPAGSTQPIR; listed as Homo sapiens)”, the logFC.mWT.over.mEQ is listed as 1.92. “HSPG2_2688 (VADSGEYVCR; listed as Homo sapiens)” showed a logFC.mWT.over.mEQ of 3.02. Substance “HSPG2_3250 (SPLPWQHR; listed as Homo sapiens)” came in with a logFC.mWT.over.mEQ of 1.01. For the substance “HSPG2_3542 (IAHVELADAGQYR; listed as Homo sapiens)”, the logFC.mWT.over.mEQ worked out at 0.67. The same measure for “HSPG2_3647 ([pGlu]GKVKAFAHLQVPER; listed as Homo sapiens)”: 1.22. Substance “HSPG2_3672 (SFLPLPTIKDAYR; listed as Homo sapiens)” registered a logFC.mWT.over.mEQ of 1.03. Turning to “HSPG2_3813 (SSGFIGCVR; listed as Homo sapiens)”, the logFC.mWT.over.mEQ is on record as 1.09. In turn, “HSPG2_4004 (SAEPLALGR; listed as Homo sapiens)” had a logFC.mWT.over.mEQ of 1.25. Take “HSPG2_4021 (LNKDGSLR; listed as Homo sapiens)”: the logFC.mWT.over.mEQ was determined as 0.73. With “HSPG2_4075 (GCVGEVSVNGKR; listed as Homo sapiens)”, the logFC.mWT.over.mEQ came out at 0.75.

For “HSPG2_4133 (DGFKGDLCEHEENPCQLR; listed as Homo sapiens)”, the logFC.mWT.over.mEQ amounted to 0.76. “HTRA1_33 (LAAGCPDR; listed as Homo sapiens)” came in with a logFC.mWT.over.mEQ of 2.78. In the case of “IFI30_43 (YKTGNLYLR; listed as Homo sapiens)”, the logFC.mWT.over.mEQ was determined as 3.19.

On to “IGFBP3_31 (SAGLGPVVR; listed as Homo sapiens)”, for which the logFC.mWT.over.mEQ is recorded as 2.49. The same measure for “IGFBP3_32 (AGLGPVVR; listed as Homo sapiens)”: 3.78; for “IGFBP3_200 (FSSESKR; listed as Homo sapiens)”: 2.41; for “IGFBP7_101 (AAGGPGVSGVCVCKSR; listed as Homo sapiens)”: 3.69. In turn, “LASP1_123 (HEEFEKSR; listed as Homo sapiens)” registered a logFC.mWT.over.mEQ of 1.40. “LGALS1_53 (HGDANTIVCNSKDGGAWGTEQR; listed as Homo sapiens)” returned a logFC.mWT.over.mEQ of 3.89. The same measure for “LGALS3BP_447 (FQAPSDYR; listed as Homo sapiens)”: 4.13; for “LOXL1_219 (VASAGVIYPYQPR; listed as Homo sapiens)”: 1.09. The substance “LOXL2_37 (FQQPAPEYHQPQAPANVAKIQLR; listed as Homo sapiens)” had a logFC.mWT.over.mEQ of 3.28. Substance “LOXL2_38 ([code q]QPAPEYHQPQAPANVAKIQLR; not fully specified; listed as Homo sapiens)” came in with a logFC.mWT.over.mEQ of 1.26.

“LOXL2_318 (AYKPEQPLVR; listed as Homo sapiens)”: the logFC.mWT.over.mEQ amounted to 0.78.

These data come from patent publication US20240368668A1, “SUBSTRATES AND BIOMARKERS OF ADAMTS7” (The Broad Institute, Inc., priority 2021, published 2024).
